Assay results reported in patent US20230312652A1, “NOVEL PEPTIDES AND USES THEREOF” (Aarhus Universitet, priority 2020, published 2023).
Where a SMILES comes first, the peptide text is derived from it.

Experiments:
[1] = Mouse brain homogenate stability; assay type: in vitro ADME; details: 2 μM, read-out: T½ in brain homogenate
Experimental: Mouse brain homogenate was incubated with 2 μM of P1 or 7-Ethoxycoumarin (positive control of degradation). Enzymatic reactions were stopped at timepoints between 0-240 min and samples analysed by LCMS. For test with protease inhibitors, brain homogenate was pre-incubated for 30 minutes with protease inhibitors prior to incubation with P1. For brain homogenate binding, 2 μM of P1 or propranolol (positive control) were added to mouse brain homogenate and incubated at 37° C. for 30 minutes. To prepare the protein-free samples (F samples) to be used for unbound determination, an aliquot of the pre-incubated matrix containing test compound or control compound was transferred to ultracentrifuge tubes and subjected to ultracentrifugation at 37° C., 35000 rpm for 4 hrs. In parallel, brain homogenate was incubated for 4.5 hrs to determine total levels after incubation.

[2] = system: BDNF, TrkB, PGC1a, DARPP32; assay: Neurotrophic and mitochondrial proteins in cortex of R6/2 mice after daily SC administration; assay type: in vivo, mouse; details: 13 mg/kg SC daily, 8 to 12 weeks of age
Experimental: In a separate study, we validated target engagement of P1 (SEQ ID NO: 1) in R6/2 mice (mouse model of Huntington's), when treated for a prolonged period in the late stage of disease in this model. R6/2 mice were obtained from the Jackson Laboratory as: • FEMALE B6CBA-Tg(HDexon1)62Gpb/3J, stock 006494. Hemizygous (R6/2) • FEMALE B6CBA-Tg(HDexon1)62Gpb/3J, stock 006494. NonCarrier (WT controls)
The R6/2 mice were injected with a daily dose of 13 mg/kg of P1 subcutaneously in 4.38 mM L-His, 140 mM NaCl, 0.2% Tween-20 and 1500 IU hyaluronidase (pH 6.15) between 8 weeks to 12 weeks of age. At 12 weeks of age, mice were sacrificed and their brains removed and both hippocampus—cortex and striatal tissue was isolated and lysed in RIPA lysis buffer containing containing cOmplete and phosSTOP.
Levels of both BDNF and its receptor, TrkB, were validated along with levels of the mitochondrial master regulator PGC1a. In addition, levels of DARPP32, a marker of medium spiny neurons (MSN), which are the neurons that ultimately perish in HD, were evaluated in cortex tissue.

[3] = Plasma stability, human plasma; assay type: in vitro ADME; details: 2 μM, 37° C.
Experimental: (§1) Mouse or human plasma were incubated with 2 μM of P1 (SEQ ID NO: 1) or propantheline bromide (positive control for degradation) and left at 37° C. At each time point, stop solution was added to precipitate the solution and after mixing and centrifugation, supernatant was used for LCMS analysis.

GRN = GRN levels in hippocampus of wild-type mice after 7 days daily SC treatment; assay type: in vivo, mouse; details: 13 mg/kg SC daily for 7 days, sacrificed on day 8
Experimental: Wild-type mice were injected with a daily dose of 13 mg/kg of P1 (SEQ ID NO: 1) subcutaneously in 4.38 mM L-His, 140 mM NaCl, 0.2% Tween-20 and 1500 IU hyaluronidase (pH 6.15) for 7 days. The mice were sacrificed on day 8. The hippocampus was isolated and lysed using a TissueLyser in RIPA lysis buffer containing cOmplete and phosSTOP. Levels of GRN (ab HPA008763 from Sigma) was validated by western blotting normalized to beta-actin. Student's t-test was used for statistical analysis.

[4] = Plasma stability, mouse plasma; assay type: in vitro ADME; details: 2 μM, 37° C.
Experimental: as §1

cortical neurons = assay: Survival of wild-type cortical neurons, MTT assay; assay type: cell-based, mouse
Experimental: Cortical neurons were isolated from p0 wild-type mice and seeded in a density of 50.000 in a 96-well plate pre-coated with poly-L and laminin and incubated at 37° C. in a 5% C02 atmosphere. At 7 days in vitro (DIV7) the neurons were treated by changing half the media with neurobasal A with B27 containing the peptides (P2, P4 or P6) to give a finale concentration of 1 uM and further incubated. The cortical neurons were treated in a likewise manner on DIV9 and DIV11. At DIV12 half the media was removed and 3-(4,5-dimethylthiazole-2-yl)-2,5-diphenyltetrazolium bromide (MTT) was added to the media to give a finale concentration of 0.5 mg/mL. MTT is reduced by mitochondrial enzymes in active cells to an insoluble product called formazan, which can be detected by colorimetry. Thus, the colour generated reflects activity and viable cells in the culture. The neurons were incubated for 4 hours with MTT and thereafter lysed in a 50% EtOH and 50% DMSO solution. To assure proper mixing of formazan, the plate was left to shake for 30 minutes before being measured at 570 nm and 650 nm. Student's t-test was used for statistical analysis.
Further, a drug-dose response on survival for peptide P1 was assessed in a similar manner.

CREB and AMPK = CREB and AMPK activation in brain of wild-type mice after subcutaneous injection; assay type: in vivo, mouse; details: SC
Experimental: To assess the subcutaneous administration route of peptide P1, 8 weeks old wild-type mice were subcutaneously injected with different doses ranging between 0.13 to 26 mg/kg of peptide P1 dissolved in 4.38 mM L-His, 140 mM NaCl, 0.2% Tween-20 and 1500 IU hyaluronidase (pH 6.15). Likewise, was an earlier lead peptide constituting a linear version of P1 attached to a cell-penetrating moiety (P9, SEQ ID NO: 9), tested for its ability to activate CREB in both striatum and hippocampus (in a separate study) following subcutaneous injection with 3.6 mg/kg. 2 hours after injection the mice were sacrificed by cervical dislocation and striatal tissue was isolated by dissection and snap frozen in liquid nitrogen and stored at −80° C. until further use. To assess the activation of CREB and AMPK, the tissue was lysed using a TissueLyser in lysis buffer containing cOmplete and DTT. The samples were subsequently homogenized by sonication. The phosphorylation of CREB on serine 133 and threonine 172 on AMPK was subsequently validated by western blotting and the levels of were normalized to beta-actin. Student's t-test was used for statistical analysis.

CSCC[C@@H]1NC(=O)[C@H](C(C)C)NC(=O)[C@H](CC(=O)O)NC(=O)[C@H](CCC(=O)O)NC(=O)[C@H](CCC(=O)O)NC(=O)[C@H](Cc2c[nH]cn2)NC(=O)[C@H](CCC(=O)O)NC(=O)[C@H](C(C)C)NC(=O)[C@@H]2CCCN2C(=O)[C@H](CCC(=O)O)NC(=O)[C@H]([C@@H](C)O)NC1=O [Peptide P1, [MTEPVEHEEDV]] (cyclo(MTEPVEHEEDV))
half-life [1]: 4.08 h
BDNF levels in cortex [2]: significantly higher basal levels
DARPP32 levels in cortex [2]: tendency to increase
PGC1a levels in cortex [2]: significantly higher basal levels
TrkB levels in cortex [2]: significantly higher basal levels
half-life [3]: > 4.82 h
GRN levels in hippocampus (GRN): higher levels of GRN
half-life [4]: > 4.82 h
survival in drug-dose response study (cortical neurons; BDNF as positive control): increases survival
EC50 (cortical neurons; drug-dose response, Example 5): 2700 nM
dose resulting in the highest efficacy (CREB and AMPK; CREB and AMPK activation in striatum): 13 mg/kg
pAMPK in striatum (CREB and AMPK; doses between 0.13-13 mg/kg, 2 hours after injection): significantly activated
pCREB (S133) in striatum (CREB and AMPK; doses between 0.13-26 mg/kg, 2 hours after injection): significantly activated
